Source: patent US20180326022A1, “COMPOSITIONS AND METHODS FOR IMPROVING HEART FUNCTION AND TREATING HEART FAILURE” (The Trustees of the University of Pennsylvania, priority 2017, published 2018)

Experiments:
human myocytes [1] = test: Calcium measurements in human myocytes; type: cell-based
Experimental: (§1) Viable myocytes were concentrated by gravity (5-7 min) and supernatant was aspirated to remove dead cells. Myocytes were resuspended in NT solution containing 1 mM Ca^2+ and concentrated by gravity (5-7 min) again. Cardiomyocytes used acutely were maintained in NT solution for up to 6 hours. Myocytes were treated with 10 μM parthenolide (Fisher Scientific NC9013142 or Sigma P0667) or 10 μM colchicine (Sigma) at room temperature in NT solution for 2 hours. Experiments were performed within 6 hours of isolation, except for those involving viral transduction in cultured cells.
Calcium measurements were carried out as described in Example 1 with the following modifications. Myocytes were loaded with 1 μM Fluo-3-acetoxymethyl ester (Invitrogen) and 15% Pluronic F127 (a poloxamer made by BASF, Florham Park, N.J., USA) for 15 minutes. Cells were scanned using a 488-nm argon ion laser in confocal line-scan mode at 0.909 ms/line. Cells were electrically paced at 0.5 Hz at room temperature for 30 s to achieve steady state; five steady-state transients of each myocyte were averaged, pooled in groups and analyzed for calcium transient properties. The measured fluorescence (F) throughout the transient was normalized to the resting fluorescence prior to stimulation (F0) to normalize for heterogeneity in dye loading.

human myocytes [2] = test: Cell contractility of human myocytes (0.5 Hz); type: cell-based
Experimental: as §1
MatTek glass bottom dish was coated 5 μl of 0.5 mg/ml laminin and air dried for 10 min. Culture medium was F-10 (1×) Nutrient Mixture (Ham) [+] L-Glutamine (Life Technologies, 11550-043) supplemented with insulin-transferrin selenium-X (Gibco, 51500-056), 20 mM HEPES, 1 μg/μl primocin (Invivogen, ant-pm-1), 0.4 mM extra CaCl2, 5% FBS, 25 μM cytochalasin D (Cayman, 11330). Viable myocytes were concentrated and a proper amount of medium was added in culture so that neighboring cells were not in direct contact. Viral constructs were permitted to express for 48 hours with Moi=100-200. Adenoviral TTL-IRES-dsRed and EMTB-3x GFP were transduced in human myocytes as previously performed in rat myocytes. Myocytes were replenished with fresh warm medium without cytochalasin D before calcium and contractility measurements.
Experiments were performed as described in Example 1 with some modification. Contractility is measured in custom-fabricated cell chambers (Ionoptix) mounted on an LSM Zeiss 880 inverted confocal microscope using a 40× oil 1.4 NA objective and transmitted light camera (IonOptix MyoCam-S). Myoyctes were maintained in NT solution (for freshly isolated myocytes) or culture medium (without cytochalasin D, for cultured myocytes) at room temperature and electrical field stimulation was provided at 0.5 Hz with a myopacer (IonOptix MYP100) through platinum electrodes lowered into the bath. Sarcomere length was measured optically by Fourier transform analysis (IonWizard, IonOptix). After 10-30 s of 0.5 Hz pacing to achieve steady state, five traces were recorded and analyzed. If not specified, contractility data was obtained at room temperature.
To test whether the contractile improvement over MT destabilization remains under more physiological conditions, both 0.5 Hz and 1 Hz contractions at 37 C were recorded and analyzed in a small subset of isolated human myocytes (1 NF and 1 failing heart, FIG. 29C).

[3] = tested on: cardiac and skeletal muscle; details: 10 μM; refs (13), (8); cited from earlier work
human myocytes [4] = test: Nanoindentation stiffness measurements; type: cell-based; details: failing human myocytes; 10 μM, 2 hours
Experimental: as §1
MatTek glass bottom dish was coated 5 μl of 0.5 mg/ml laminin and air dried for 10 min. Culture medium was F-10 (1×) Nutrient Mixture (Ham) [+] L-Glutamine (Life Technologies, 11550-043) supplemented with insulin-transferrin selenium-X (Gibco, 51500-056), 20 mM HEPES, 1 μg/μl primocin (Invivogen, ant-pm-1), 0.4 mM extra CaCl2, 5% FBS, 25 μM cytochalasin D (Cayman, 11330). Viable myocytes were concentrated and a proper amount of medium was added in culture so that neighboring cells were not in direct contact. […]
Mechanical properties at the microscopic scale were measured using nanoindentation (Piuma, Optics11, The Netherlands). […] The Young's moduli were calculated automatically by the software, by fitting the force vs. indentation curve to the Hertz equation. […]

[5] = tested on: primary adult rat cardiomyocytes; test: Cell contractility (sarcomere shortening, 1 Hz pacing); type: cell-based; details: for contraction amplitudes and velocities: primary adult rat cardiomyocytes, vinblastine 20 μM 2 hr, nocodazole 1 μM 30 min, costunolide 10 μM 2 hr
Experimental: (§2) Viral constructs were permitted to express for 24-72 hours with Moi=100-200. Parthenolide (Fisher Scientific NC9013142) treatment was carried out at room temperature for 2 hours at 10 μM. All experiments were performed within 48 hours of isolation, except those involving shTTL, which were allowed 72 hours to improve knockdown efficiency.
Experiments were performed in custom-fabricated cell chambers (Ionoptix) mounted on an LSM Zeiss 780 inverted confocal microscope using a 40× oil 1.4 NA objective and transmitted light camera (IonOptix MyoCam-S). For contractility assays, cells were maintained in NT solution and electrical field stimulation was provided at 1 Hz with a myopacer (IonOptix MYP100) through platinum electrodes lowered into the bath. Sarcomere length was measured optically by Fourier transform analysis (IonWizard, IonOptix). After 15 s of 1 Hz pacing to achieve steady state, five traces were recorded and analyzed.

rat cardiomyocytes = test: Calcium measurements (Fluo-3 transients); type: cell-based; details: rat ventricular myocytes; 2 hrs of 10 μM EpoY
Experimental: Myocytes were loaded with Fluo-3 by 20 min incubation with 1 μM Fluo-3-acetoxymethyl ester (Invitrogen) and 0.01% Pluronic F127 (a poloxamer made by BASF, Florham Park N.J., USA), and allowed an additional 10 min for de-esterification. Cells were scanned using a 488 nm argon ion laser in confocal line-scan mode at 1.92 ms/line. Cells were electrically paced at 1 Hz for 20 s to achieve steady state; the final 5 traces of the pacing protocol were pooled and analyzed for calcium transient properties. The measured fluorescence (F) throughout the transient was normalized to the resting fluorescence prior to stimulation (F0) to normalize for heterogeneity in dye loading.

detyrosinated tubulin = test: Western blotting of cardiomyocyte lysates (TTL, α-, detyr-, tyr-tubulin); type: cell-based; details: rat cardiomyocytes; PTL treatment; shTTL; short term EpoY
Experimental: as §2
For analysis of proteins expression levels quantitative Western blots were performed using infrared fluorescence imaging on an Odyssey Imager (LI-COR). Cell homogenates were prepared in ice-cold IGEPAL lysis buffer. After 1 freezing cycle lysates were spun at 18,000×g for 5 min. Aliquots of supernatants were mixed with 4× sample buffer (LI-COR, 928-40004) containing 10% BME, boiled for 6 min., and resolved on sodium dodecyl sulfate (SDS)-polyacrylamide gel electrophoresis Tris-glycine gels (Bio-Rad). Proteins were transferred to a membrane on Mini Trans-Blot Cell (Bio-Rad), blocked 1 h in Odyssey Blocking Buffer (TBS) (LI-COR, 927-50000), and probed with the corresponding primary antibody (see list below) for 2 h at room temperature. Membranes were then rinsed with TBST 4 times for 5 min, and incubated with secondary antibodies (below) for 1.5 h at room temperature. Membranes were rinsed again with TBST and then imaged on Odyssey Imager. Image analysis was performed using Image Studio Lite software (LI-COR). Fluorescent band intensity was always normalized to GAPDH loading control. Analysis of human tissue samples for levels of detyrosinated tubulin was performed blinded to the experimental groups.

COc1cc2c(c(OC)c1OC)-c1ccc(OC)c(=O)cc1[C@@H](NC(C)=O)CC2 [colchicine, (S)—N-(5,6,7,9-tetrahydro-1,2,3,10-tetramethoxy-9 oxobenzol[a]heptalen-7-yl) acetamide]
Ca2+ cycling (human myocytes [1]; any group (NF and failing human myocytes)): no significant effect | impaired [Ca2+]i cycling (human myocytes [1]; failing human myocytes): neither colch nor PTL treatment improved | shortening amplitude and contractile velocities (human myocytes [2]; NF human myocytes, 10 μM, 2 hours): modest (yet significant) increases | restoration of lost function (contractile velocities vs NF benchmark) (human myocytes [2]; failing human myocytes): ~50% | shortening amplitude and velocity, speed of relaxation (human myocytes [2]; failing human myocytes, 10 μM, 2 hours): robustly improved | effect on microtubules [3]: broadly depolymerizes MTs | viscoelasticity (Emax and EΔ) (human myocytes [4]): robustly reduced viscoelasticity

C=C1C(=O)O[C@@H]2/C=C(\C)CC/C=C(\C)CC[C@@H]12 [costunolide, (3aS,6E,10E,11aR)-6,10-dimethyl-3-methylidene-3a,4,5,8,9,11a-hexahydrocyclodeca[b]furan-2-one]
contraction amplitudes and velocities [5]: effective to increase

CCOC(=O)C1O[C@@H]1C(=O)N[C@@H](Cc1ccc(O)cc1)C(=O)O (some centres unmarked) [EpoY]
electrically evoked [Ca2+]i transients (rat cardiomyocytes): not changed | alpha / total tubulin levels (western blot) (detyrosinated tubulin): without changing | detyrosinated tubulin (western blot) (detyrosinated tubulin): specifically reduces detyrosination | contractility (amplitude of contraction, velocity of contraction and relaxation) ([5]; rat ventricular myocytes, 2 hrs of 10 μM EpoY): enhanced

CC[C@]1(O)C[C@@H]2CN(CCc3c([nH]c4ccccc34)[C@@](C(=O)OC)(c3cc4c(cc3OC)N(C)[C@H]3[C@@](O)(C(=O)OC)[C@H](OC(C)=O)[C@]5(CC)C=CCN6CC[C@]43[C@@H]65)C2)C1 [vinblastine]
contraction amplitudes and velocities [5]: effective to increase

COC(=O)Nc1nc2ccc(C(=O)c3cccs3)cc2[nH]1 [nocodazole]
contraction amplitudes and velocities [5]: effective to increase
